Source: patent US7425579B2, “Methods for inhibiting activity of polyamine transporters” (Universite Laval, priority 1998, dated 2008)

Experiments:
[1] = system: mammalian polyamine carrier; assay: Determination of polyamine uptake activity: inhibition of diamine and polyamine transport in T-47D cells; assay type: cell-based, human; conditions: T-47D breast cancer cells; mean±SD; read-out: Ki, inhibition of [3H]putrescine uptake
Procedure: The rate of diamine and polyamine transport was determined in T-47D and ZR-75-1 cells incubated in serum-free RPMI 1640 medium as previously described (U.S. Pat. No. 6,083,496; Covassin et al. (1999) Bioorg. Med. Chem. Lett. 9, 1709-1714), using 20 μM [^3H]putrescine (179 Ci/mol), 5 μM [^3H]spermidine (246 Ci/mol) and 3 μM [^14C]spermine (300-400 mCi/mol) respectively, as substrates for a 20-min assay period. Uptake activity was expressed per amount of DNA as fluorometrically determined using 3,5-diaminobenzoic acid (Simard et al. (1990) Endocrinology 126, 3223-3231). Kinetic parameters of polyamine transport inhibition for the transport antagonists were determined by Lineweaver-Burke analysis of uptake activity in the presence of 0.1 μM [^3H]putrescine, 0.03 μM [^3H]spermidine, and 0.01 μM [^14C]spermine plus increasing concentrations of nonradioactive substrate. For competitive inhibitors, Ki values were estimated by iterative curve fitting for sigmoidal equations describing transport rates in the presence of increasing concentrations of antagonist, using the Cheng-Prusoff equation for competitive inhibition (U.S. Pat. No. 6,083,496).
The ability of BSD and BNSD compounds to inhibit uptake of the main natural substrates of the mammalian polyamine carrier, namely putrescine, spermidine and spermine, was evaluated using T-47D human breast cancer cells (Table 1).
Data are presented as the mean±SD of at least two independent determinations of IC50 values, each based on triplicate determinations of uptake velocity at increasing inhibitor concentrations.
The potency of the polyamines and their xylylated dimers as competitive inhibitors of spermidine transport was evaluated in the T-47D human breast cancer cell line (Table 2).

T-47D cells = assay: Effect of inhibitors on T-47D cell proliferation (DNA content); assay type: cell-based, human; conditions: T-47D cells, 9 d
Procedure: FIGS. 3A and 3B are graphs showing the effect compounds used in a method according preferred embodiment of the present invention, on cell proliferation. In particular, they relate to the effect of selected BSD and BNSD derivatives on T-47D cell proliferation. Cells were incubated for 9 d with the indicated concentrations of BSD-2 (∘), BNSD-4 (●), BSD-4 (□), BNSD-6 (▪), BSD-10 (Δ), BSD-4-ene (▴) and BSD-4-yne (▾) in medium containing 1 mM aminoguanidine, and total DNA content per culture was then determined. B, Effect of BNSD-X (N,N,N′,N′-tetrakis-(3-aminopropyl)-p-diaminoxylene) on cell proliferation in various mammalian cell lines. Jurkat (∘), LAN-1 (●), L1210 (□), T-47D (▪), ZR-75-1 (Δ) and MDA-MB-231 (▴) cells were grown to near confluency or saturation (for 4 to 11 d according to the cell line considered) with the indicated concentrations of BNSD-X in the presence of 1 mM aminoguanidine, and total DNA content per culture was then determined. Data are given as the mean±SD for triplicate cultures from one out of at least two identical experiments;
FIGS. 4A and 4B are graphs showing how compounds used in a method according to a preferred embodiment are differentially sensitive to degradation by BSAO (bovine serum amine oxidase). In particular, T-47D cells were incubated for 9 d with the indicated concentrations of BSD-X (∘), BNSD-X (●), BSD-3 (□) or BNSD-3 (▪) in the absence (A) or presence of 1 mM aminoguanidine (B), and total DNA content per culture was then determined. Data are presented as the mean±SD for triplicate cultures from one representative experiment;
The effect of transport inhibitors on cell proliferation was evaluated by determination of cell number (L1210, Jurkat) using electronic sizing with a Model ZM Coulter counter (Coulter Electronics, Hialeah, Fla.), or DNA content per culture (for all other cell lines) with the 3,5-diaminobenzoic acid assay. […] Cytotoxicity of the inhibitors was determined in the presence or absence of aminoguanidine, and was confirmed by a trypan blue exclusion assay.

Q: What does the source list for `NCCCN(CCCN)Cc1ccc(CN(CCCN)CCCN)cc1` [28a, N,N,N′,N′-tetrakis-(3-aminopropyl)-p-diaminoxylene]?
A: Ki [1]: 160 ± 30 nM; effect of aminoguanidine addition on the cytotoxicity of the dimer (T-47D cells; 1 mM aminoguanidine): abolished most of the cytotoxicity; cytotoxicity in the absence of aminoguanidine (T-47D cells; BSAO active): considerably more cytotoxic than their spermidine-like homologs
